For one data set, the system named is Penicillium sp. The experiment in a line: Growth of Penicillium sp. in vitro in the presence of pure volatiles. Format: cell-based. Particulars: for Penicillium fungal development delayed: after 7 days at 23° C. As for the experimental part:
(§1) In accordance with still another embodiment of the present invention, growth of Penicillium sp. and Aspergillus Niger was evaluated in vitro in the presence of hexanal, acetaldehyde and 2E-hexenal. The fungistatic and fungicidal effects of the pure volatiles were evaluated and presented below.

The next data set has as its system Alternaria alternata. Put plainly: Growth of A. alternata exposed to volatile vapour in closed jars at 23° C. Particulars: 7 days at 23° C.; for concentration that completely inhibited / avoided A. alternata growth: headspace concentration.
In the next data set the test system is Botrytis cinerea. The experiment in a line: Growth of B. cinerea exposed to volatile vapour in closed jars at 23° C. Particulars: 7 days at 23° C.
The subject of a further data set is Colletotrichum acutatum. Put plainly: Growth of C. acutatum exposed to volatile vapour in closed jars at 23° C. The conditions noted are these: 7 days at 23° C.; for concentration that completely inhibited / avoided C. acutatum growth: headspace concentration.
The conditions of data set [1]: oral, mammalian; cited from earlier work.
The next data set deals with Aspergillus Niger. The experiment in a line: Growth of Aspergillus niger in vitro in the presence of pure volatiles. Format: cell-based. Particulars: 4 μL of volatile, after 7 days at room temperature. As to the method: as §1

Where only a bound is given, the exact number is not on record here.

Description for Alternaria alternata: (§2) Fourteen-day-old surface-plated cultures of Colletotricumn acutatum, Alternaria alternata and Botrytis cinerea in plastic Petri dishes (9 cm diameter), were filled aseptically with PDA medium (Potato Dextrose Agar) (Sigma-Aldrich Corp. (Saint Louis, Mo.)), and mixed with a few drops of sterile distilled water. Ten mL of each were collected inside plastic tubes which were shaken hard to dislodge spores from mycelia. The spores and cell suspensions were then filtered with sterile cheesecloth to remove debris such as mycelia and condensed-agar fragments and the aliquot was concentrated to 10^6 c.f.u./mL (spore*mL^−1), which were counted by the Neubauer improved method (Bright-Line Hemacytometer, Hausser Scientific, Horsham, Pa.).
(§3) Smaller Petri dishes (5.5 cm diameter) were also filled aseptically with PDA. Upon solidification of the agar medium, a drop of spores of each suspension was inserted as a drop in the centre of the well with a 100 μL Oxford Autoclavable Benchmate Pipette (Nichiryo, Japan). Finally, the Petri dishes were placed inside 1 L-glass jars which were closed with twist-off tops and stored at 23° C. These were used as the controls.
(§4) Other jars were modified for inserting and withdrawing of the volatiles obtained from the bioassays. For that, jars tops were modified by introducing a septum through which the volatile was inserted on a small piece of glass which was suspended 4 cm above the bottom. The same device was used to withdraw samples during storage. […]
(§5) Radial growth of the cultures in controls and treated samples were evaluated daily by measuring the surface area of the plate occupied by the colony during incubation or by measuring the length of the colony. […] Each assay was tested in triplicate and the area means calculated were analyzed statistically by analysis of variance. The delay in fungal growth was expressed as direct radial growth of cultures in cm^2 or cm as a percentage of colony growth by comparing samples exposed to the anti-fungal treatments with the controls. […]
Description for Botrytis cinerea: as §2, §3, §4, §5
Description for Colletotrichum acutatum: as §2, §3, §4, §5

On to `CCC/C=C/C=O` [2E-hexenal], for which, in the data set with Penicillium sp. (1 μL of volatile, 1 week at 23° C.), the Penicillium growth result is reported as “not able to grow”.
As to `CCCCCC=O` [hexanal], in the data set with Alternaria alternata, the “concentration that completely inhibited A. alternata growth, equivalent ppm of volatile” value came out at 7 ppm and the “concentration that completely inhibited / avoided A. alternata growth” value is 1.91 μg/mL air. Also, the “concentration that completely inhibited B. cinerea growth, equivalent ppm of volatile” value with Botrytis cinerea was 4 ppm. Besides, the “concentration that completely inhibited B. cinerea growth” value with Botrytis cinerea (headspace concentration) is 1.05 μg/mL air. In addition, in the data set on Colletotrichum acutatum, the “concentration that completely inhibited C. acutatum growth, equivalent ppm of volatile” value is 1.5 ppm and the “concentration that completely inhibited / avoided C. acutatum growth” value was found to be 0.91 μg/mL air. Further, in the data set on Penicillium sp. (insertion of 4 μL of volatile), the “Penicillium fungal development delayed” value is recorded as “over 18%”. In the data set with Penicillium sp. (insertion of 6 μL of volatile), the “Penicillium fungal development delayed” value is given as above 74%.
With `CC=O` [acetaldehyde], the “concentration that completely inhibited / avoided A. alternata growth” value in the data set on Alternaria alternata was found to be 0.10 μg/mL air. Moreover, the “ORL-MAM LD50” value in data set [1] is 250 mg/kg. In the data set with Aspergillus Niger, the “A. niger delay in growth” value is “over 66%”. Besides, the “prevention of B. cinerea growth” value in the data set on Botrytis cinerea (any amount tested) was “able to prevent”. For the same molecule, the “concentration that completely inhibited / avoided C. acutatum growth” value with Colletotrichum acutatum is recorded as 0.44 μg/mL air.

(Values after patent US20070207981A1, “MICRO-ENCAPSULATION OF VOLATILE COMPOUNDS INTO CYCLODEXTRINS: A NEW TECHNOLOGY TO REDUCE POST HARVEST LOSSES” (priority 2006, published 2007).)
